Toxic doses and inconclusive results are not listed. Cut-off read from the data, not from the text of the source: active = T/C of 150% or more; inactive = T/C below 125%.
Tested on: L1210 leukemia ip in BDF1 mice, survival T/C
Assay: NCI In Vivo Anticancer Drug Screen. Data for tumor model L1210 Leukemia (intraperitoneal) in B6D2F1 (BDF1) mice
Conditions: endpoint: mean survival time, higher = longer survival
Summary of the method: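 Survival endpoint. Drug-treated group vs vehicle group, expressed as T divided by C. Tumor passaged by transplantation.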

[1] = dose: 75.0 mg/kg/injection, schedule: Q01DX001 (ip), vehicle: saline
[2] = dose: 100.0 mg/kg/injection, schedule: Q01DX001 (ip), vehicle: saline
[3] = dose: 200.0 mg/kg/injection, schedule: Q01DX001 (ip), vehicle: saline
[4] = dose: 400.0 mg/kg/injection, schedule: Q01DX001 (ip), vehicle: saline
[5] = dose: 100.0 mg/kg/injection, schedule: Q04DX003 (ip), vehicle: saline with Tween-80
[6] = dose: 200.0 mg/kg/injection, schedule: Q04DX003 (ip), vehicle: saline with Tween-80
[7] = dose: 400.0 mg/kg/injection, schedule: Q04DX003 (ip), vehicle: saline with Tween-80
[8] = dose: 100.0 mg/kg/injection, schedule: Q01DX001 (ip), vehicle: saline with Tween-80
[9] = dose: 200.0 mg/kg/injection, schedule: Q01DX001 (ip), vehicle: saline with Tween-80
[10] = dose: 400.0 mg/kg/injection, schedule: Q01DX001 (ip), vehicle: saline with Tween-80
[11] = dose: 100.0 mg/kg/injection, schedule: Q01DX001 (ip), vehicle: carboxymethylcellulose (CMC)
[12] = dose: 200.0 mg/kg/injection, schedule: Q01DX001 (ip), vehicle: carboxymethylcellulose (CMC)
[13] = dose: 100.0 mg/kg/injection, schedule: Q04DX003 (ip), vehicle: Klucel (hydroxypropylcellulose) (HPC)
[14] = dose: 200.0 mg/kg/injection, schedule: Q04DX003 (ip), vehicle: Klucel (hydroxypropylcellulose) (HPC)
[15] = dose: 400.0 mg/kg/injection, schedule: Q04DX003 (ip), vehicle: Klucel (hydroxypropylcellulose) (HPC)

Measured: T/C

O=C(Nc1c(Oc2ccc(Cl)c(Cl)c2)ccc(Cl)c1S(=O)(=O)O)Nc1c(Oc2ccc(Cl)c(Cl)c2)ccc(Cl)c1S(=O)(=O)O
inactive: [1] 101 % of control | dose: 150.0 mg/kg/injection, schedule: Q01DX001 (ip), vehicle: saline 99 % of control | dose: 300.0 mg/kg/injection, schedule: Q01DX001 (ip), vehicle: saline 96 % of control

CC(=O)[O][Pb]([c]1ccccc1)([c]1ccccc1)[c]1ccccc1
inactive: dose: 0.5 mg/kg/injection, schedule: Q01DX015 (ip), vehicle: carboxymethylcellulose (CMC) 112 % of control | dose: 1.0 mg/kg/injection, schedule: Q01DX015 (ip), vehicle: carboxymethylcellulose (CMC) 90 % of control | dose: 2.0 mg/kg/injection, schedule: Q01DX015 (ip), vehicle: carboxymethylcellulose (CMC) 87 % of control | dose: 4.0 mg/kg/injection, schedule: Q01DX015 (ip), vehicle: carboxymethylcellulose (CMC) 96 % of control

Oc1cccc(-c2nnc(-c3cccc(O)c3)nn2)c1
inactive: [2] 101 % of control | [3] 96 % of control | [4] 102 % of control

C/C=C/C(=O)Nc1cccc(OC(=O)NCC)c1
inactive: [5] 95 % of control | [6] 93 % of control | [7] 98 % of control

Nc1cccc(CNC(=O)COc2ccc(Cl)cc2C(=O)O)c1
inactive: [8] 98 % of control | [9] 95 % of control | [10] 103 % of control

NC(N)=N/N=C/c1ccc(O)c(S(=O)(=O)O)c1
inactive: dose: 15.0 mg/kg/injection, schedule: Q01DX Z (ip), vehicle: saline 97 % of control | dose: 30.0 mg/kg/injection, schedule: Q01DX Z (ip), vehicle: saline 90 % of control | dose: 60.0 mg/kg/injection, schedule: Q01DX Z (ip), vehicle: saline 87 % of control | dose: 60.0 mg/kg/injection, schedule: Q01DX Z (oral), vehicle: saline 97 % of control | dose: 120.0 mg/kg/injection, schedule: Q01DX Z (ip), vehicle: saline 90 % of control | dose: 120.0 mg/kg/injection, schedule: Q01DX Z (oral), vehicle: saline 104 % of control | dose: 240.0 mg/kg/injection, schedule: Q01DX Z (oral), vehicle: saline 95 % of control | dose: 480.0 mg/kg/injection, schedule: Q01DX Z (ip), vehicle: saline 90 % of control | dose: 480.0 mg/kg/injection, schedule: Q01DX Z (oral), vehicle: saline 95 % of control

COc1ccc(C(N)=O)cc1
inactive: dose: 100.0 mg/kg/injection, schedule: Q04DX002 (ip), vehicle: saline with Tween-80 94 % of control | dose: 200.0 mg/kg/injection, schedule: Q04DX002 (ip), vehicle: saline with Tween-80 94 % of control | dose: 400.0 mg/kg/injection, schedule: Q04DX002 (ip), vehicle: saline with Tween-80 109 % of control

CC(=O)c1ccc(-c2ccccc2)cc1
inactive: dose: 100.0 mg/kg/injection, schedule: Q01DX009 (ip), vehicle: saline with Tween-80 91 % of control | dose: 200.0 mg/kg/injection, schedule: Q01DX009 (ip), vehicle: saline with Tween-80 93 % of control | dose: 400.0 mg/kg/injection, schedule: Q01DX009 (ip), vehicle: saline with Tween-80 96 % of control

Cc1cc2c(cc1C)C1(c3ccccc3)OC1(c1ccccc1)C2=O (configuration not stated)
inactive: [8] 95 % of control | [9] 88 % of control | [10] 92 % of control

COc1ccc(C2CCCCCC2OS(C)(=O)=O)c(OC)c1OC (configuration not stated)
inactive: [11] 108 % of control | [12] 119 % of control

Cc1cc(N(CCO)Cc2ccccc2)nc2ccccc12
inactive: [1] 102 % of control

CCCCCCCCCCCCCCCCOc1ccc(OC)cc1
inactive: [13] 102 % of control | [14] 92 % of control | [15] 92 % of control

Oc1ccc(/C=N/Nc2nc3ccccc3s2)c(O)c1
inactive: dose: 222.0 mg/kg/injection, schedule: Q01DX Z (ip), vehicle: methylcellulose (MC) 88 % of control | dose: 333.0 mg/kg/injection, schedule: Q01DX Z (ip), vehicle: methylcellulose (MC) 91 % of control | dose: 500.0 mg/kg/injection, schedule: Q01DX Z (ip), vehicle: methylcellulose (MC) 94 % of control

O=C1CCCN1C[CH2][Sn]([c]1ccccc1)([c]1ccccc1)[c]1ccccc1
inactive: dose: 50.0 mg/kg/injection, schedule: Q01DX009 (ip), vehicle: saline 104 % of control | dose: 100.0 mg/kg/injection, schedule: Q01DX009 (ip), vehicle: saline 96 % of control | dose: 200.0 mg/kg/injection, schedule: Q01DX009 (ip), vehicle: saline 107 % of control

CCOC(=O)c1c(-c2ccc([N+](=O)[O-])cc2)c(C#N)n(-c2ccccc2)c1C
inactive: dose: 100.0 mg/kg/injection, schedule: Q04DX002 (ip), vehicle: Klucel (hydroxypropylcellulose) (HPC) 95 % of control | dose: 200.0 mg/kg/injection, schedule: Q04DX002 (ip), vehicle: Klucel (hydroxypropylcellulose) (HPC) 92 % of control | dose: 400.0 mg/kg/injection, schedule: Q04DX002 (ip), vehicle: Klucel (hydroxypropylcellulose) (HPC) 103 % of control

ClC(Cl)(NC1CCCCC1)NC1CCCCC1
inactive: [2] 90 % of control | [3] 91 % of control | [4] 86 % of control

Cc1ncc(CC(=O)O)c2c1OC(C)(C)OC2
inactive: [11] 101 % of control | [12] 106 % of control | dose: 400.0 mg/kg/injection, schedule: Q01DX001 (ip), vehicle: carboxymethylcellulose (CMC) 98 % of control

CC(=NC(CC(C)C)C(=O)O)NC(CC(C)C)C(=O)O (configuration not stated)
inactive: dose: 100.0 mg/kg/injection, schedule: Q01DX009 (ip), vehicle: Klucel (hydroxypropylcellulose) (HPC) 101 % of control | dose: 200.0 mg/kg/injection, schedule: Q01DX009 (ip), vehicle: Klucel (hydroxypropylcellulose) (HPC) 110 % of control | dose: 400.0 mg/kg/injection, schedule: Q01DX009 (ip), vehicle: Klucel (hydroxypropylcellulose) (HPC) 103 % of control

CC(=O)N=c1sccn1Cc1ccccc1
inactive: dose: 75.0 mg/kg/injection, schedule: Q01DX001 (ip), vehicle: carboxymethylcellulose (CMC) 95 % of control | dose: 150.0 mg/kg/injection, schedule: Q01DX001 (ip), vehicle: carboxymethylcellulose (CMC) 98 % of control | dose: 300.0 mg/kg/injection, schedule: Q01DX001 (ip), vehicle: carboxymethylcellulose (CMC) 98 % of control

CCc1c(C/C(=N/O)C(=O)O)[nH]c(=S)[nH]c1=O
inactive: [5] 97 % of control | [6] 97 % of control | [7] 96 % of control

CCCCCCCCCCCC(=O)NC(=S)Nc1ccccc1OCC
inactive: [13] 89 % of control | [14] 90 % of control | [15] 89 % of control
